In US12378224B2 (Dong-A Socio Holdings Co., Ltd., priority 2016, dated 2025) one finds IC50 data, which are given here for 32 compounds.

This experiment has as its target human MER (528-end) (Homo sapiens (Human), UniProt Q12866). Description: HTRF Kinase Activity Biochemical Assay (KinEASE-TK). Particulars: 10 uM ATP. The essentials:
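Recombinant human MER (528-end) phosphorylated biotin-TK peptide substrate, 1 h at room temperature. Reaction stopped with detection buffer containing 0.375 nM Eu3+-cryptate anti-TK antibody and 0.062 uM streptavidin-XL665, 1 h further. Activity taken as HTRF ratio 665/620 nm ×10,000, 340 nm excitation.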
(In general: In TR-FRET formats the signal depends on donor and acceptor labels being close together.)

Sequence of human MER (528-end) (Q12866 528-999 limits assumed): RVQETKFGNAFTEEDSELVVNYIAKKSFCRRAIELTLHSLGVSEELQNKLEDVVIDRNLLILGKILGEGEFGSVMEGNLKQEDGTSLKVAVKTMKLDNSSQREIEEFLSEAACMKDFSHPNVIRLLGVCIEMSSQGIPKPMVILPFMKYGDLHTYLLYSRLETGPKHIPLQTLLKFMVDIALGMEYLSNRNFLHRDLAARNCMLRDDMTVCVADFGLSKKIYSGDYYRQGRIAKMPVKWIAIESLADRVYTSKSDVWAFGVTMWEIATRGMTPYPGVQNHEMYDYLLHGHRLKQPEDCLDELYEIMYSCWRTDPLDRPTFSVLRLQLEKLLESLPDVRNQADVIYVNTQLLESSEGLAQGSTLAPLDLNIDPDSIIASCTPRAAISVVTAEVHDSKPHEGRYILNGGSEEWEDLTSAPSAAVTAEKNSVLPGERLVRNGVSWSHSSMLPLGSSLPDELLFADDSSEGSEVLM

Take `Cn1cc(-c2cnc(N)c(C(=O)N[C@@H]3CCN(C(=O)c4ccc(-c5ccccc5Cl)nc4)C3)c2)cn1` [Example 397, (R)-2-amino-N-(1-(6-(2-chlorophenyl)nicotinoyl)pyrrolidin-3-yl)-5-(1-methyl-1H-pyrazol-4-yl)nicotinamide]: the half-maximal inhibitory concentration (IC50) – broadly, the concentration needed to halve the response being measured – fell in the range of 100 to 1000 nM.
In the case of `Cc1cc(C(=O)N2CC[C@@H](NC(=O)c3cc(-c4cnn(C)c4)cnc3N)C2)ccc1-c1ccccc1` [Example 399, (R)-2-amino-5-(1-methyl-1H-pyrazol-4-yl)-N-(1-(2-methyl-[1,1′-biphenyl]-4-carbonyl)pyrrolidin-3-yl)nicotinamide] it was 100 to 1000 nM; in that of `Cn1cc(-c2cnc(N)c(C(=O)N[C@@H]3CCN(C(=O)c4ccc(I)cc4)C3)c2)cn1` [Example 400, (R)-2-amino-N-(1-(4-iodobenzoyl)pyrrolidin-3-yl)-5-(1-methyl-1H-pyrazol-4-yl)nicotinamide], over 1000 nM.
In the case of `Cn1cc(-c2cnc(N)c(C(=O)N[C@@H]3CCN(C(=O)c4cc5ccccc5o4)C3)c2)cn1` [Example 401, (R)-2-amino-N-(1-(benzofuran-2-carbonyl)pyrrolidin-3-yl)-5-(1-methyl-1H-pyrazol-4-yl)nicotinamide] it was over 1000 nM; in that of `Cc1c(C(=O)N2CC[C@@H](NC(=O)c3cc(-c4cnn(C)c4)cnc3N)C2)oc2ccccc12` [Example 402, (R)-2-amino-5-(1-methyl-1H-pyrazol-4-yl)-N-(1-(3-methylbenzofuran-2-carbonyl)pyrrolidin-3-yl)nicotinamide], over 1000 nM; in that of `Cn1cc(-c2cnc(N)c(C(=O)N[C@@H]3CCN(C(=O)c4cc5cc(Cl)ccc5o4)C3)c2)cn1` [Example 403, (R)-2-amino-N-(1-(5-chlorobenzofuran-2-carbonyl)pyrrolidin-3-yl)-5-(1-methyl-1H-pyrazol-4-yl)nicotinamide], over 1000 nM.
`Cn1cc(-c2cnc(N)c(C(=O)N[C@@H]3CCN(C(=O)C4Cc5cc(Cl)ccc5O4)C3)c2)cn1` (stereo partly drawn) [Example 404, 2-amino-N-((3R)-1-(5-chloro-2,3-dihydrobenzofuran-2-carbonyl)pyrrolidin-3-yl)-5-(1-methyl-1H-pyrazol-4-yl)nicotinamide] came in with an IC50 of over 1000 nM.
`Cn1cc(-c2cnc(N)c(C(=O)N[C@@H]3CCN(C(=O)c4ccc5ccccc5c4)C3)c2)cn1` [Example 405, (R)—N-(1-(2-naphthoyl)pyrrolidin-3-yl)-2-amino-5-(1-methyl-1H-pyrazol-4-yl)nicotinamide] showed an IC50 of 100 to 1000 nM.
For `Cn1cc(-c2cnc(N)c(C(=O)N[C@@H]3CCN(C(=O)c4cc5ccccc5s4)C3)c2)cn1` [Example 406, (R)-2-amino-N-(1-(benzo[b]thiophene-2-carbonyl)pyrrolidin-3-yl)-5-(1-methyl-1H-pyrazol-4-yl)nicotinamide] the value was 100 to 1000 nM; for `Cn1cc(-c2cnc(N)c(C(=O)N[C@@H]3CCN(C(=O)c4cc(Br)c(Br)s4)C3)c2)cn1` [Example 407, (R)-2-amino-N-(1-(4,5-dibromothiophene-2-carbonyl)pyrrolidin-3-yl)-5-(1-methyl-1H-pyrazol-4-yl)nicotinamide], over 1000 nM.
Compound `Cc1ccc(C(=O)N2CC[C@@H](NC(=O)c3cc(-c4cnn(C)c4)cnc3N)C2)s1` [Example 408, (R)-2-amino-5-(1-methyl-1H-pyrazol-4-yl)-N-(1-(5-methylthiophene-2-carbonyl)pyrrolidin-3-yl)nicotinamide] returned an IC50 of over 1000 nM.
In the case of `Cn1cc(-c2cnc(N)c(C(=O)N[C@@H]3CCN(C(=O)c4ccc(OCc5ccccc5)cc4)C3)c2)cn1` [Example 410, (R)-2-amino-N-(1-(4-(benzyloxy)benzoyl)pyrrolidin-3-yl)-5-(1-methyl-1H-pyrazol-4-yl)nicotinamide] it was 100 to 1000 nM; in that of `Cn1cc(-c2cnc(N)c(C(=O)N[C@@H]3CCN(C(=O)c4cccc(Oc5ccccc5)c4)C3)c2)cn1` [Example 412, (R)-2-amino-5-(1-methyl-1H-pyrazol-4-yl)-N-(1-(3-phenoxybenzoyl)pyrrolidin-3-yl)nicotinamide], over 1000 nM.
As to `Cn1cc(-c2cnc(N)c(C(=O)N[C@@H]3CCN(C(=O)c4ccc(C(C)(C)C)cc4)C3)c2)cn1` [Example 414, (R)-2-amino-N-(1-(4-(tert-butyl)benzoyl)pyrrolidin-3-yl)-5-(1-methyl-1H-pyrazol-4-yl)nicotinamide], the half-maximal inhibitory concentration (IC50) was over 1000 nM.
For `Cc1ccc(C(=O)N2CC[C@@H](NC(=O)c3cc(-c4cnn(C)c4)cnc3N)C2)cc1C` [Example 415, (R)-2-amino-N-(1-(3,4-dimethylbenzoyl)pyrrolidin-3-yl)-5-(1-methyl-1H-pyrazol-4-yl)nicotinamide] the value was over 1000 nM; for `CN1CCN(c2ccc(C(=O)N3CC[C@@H](NC(=O)c4cc(-c5cnn(C)c5)cnc4N)C3)cc2)CC1` [Example 416, (R)-2-amino-5-(1-methyl-1H-pyrazol-4-yl)-N-(1-(4-(4-methylpiperazin-1-yl)benzoyl)pyrrolidin-3-yl)nicotinamide], over 1000 nM.
For `CC(C)c1ccc(C(=O)N2CC[C@@H](NC(=O)c3cc(-c4cnn(C)c4)cnc3N)C2)cc1` [Example 418, (R)-2-amino-N-(1-(4-isopropylbenzoyl)pyrrolidin-3-yl)-5-(1-methyl-1H-pyrazol-4-yl)nicotinamide] the value was over 1000 nM; for `Cn1cc(-c2cnc(N)c(C(=O)N[C@@H]3CCN(C(=O)c4ccc(C#N)cc4)C3)c2)cn1` [Example 419, (R)-2-amino-N-(1-(4-cyanobenzoyl)pyrrolidin-3-yl)-5-(1-methyl-1H-pyrazol-4-yl)nicotinamide], over 1000 nM.
In the case of `CSc1ccc(C(=O)N2CC[C@@H](NC(=O)c3cc(-c4cnn(C)c4)cnc3N)C2)cc1` [Example 420, (R)-2-amino-5-(1-methyl-1H-pyrazol-4-yl)-N-(1-(4-(methylthio)benzoyl)pyrrolidin-3-yl)nicotinamide] it was over 1000 nM; in that of `Cn1cc(-c2cnc(N)c(C(=O)N[C@@H]3CCN(C(=O)Cc4ccc(-c5ccccc5)cc4)C3)c2)cn1` [Example 422, (R)—N-(1-(2-([1,1′-biphenyl]-4-yl)acetyl)pyrrolidin-3-yl)-2-amino-5-(1-methyl-1H-pyrazol-4-yl)nicotinamide], over 1000 nM.
The compound `Cn1cc(-c2cnc(N)c(C(=O)N[C@@H]3CCN(C(=O)C=Cc4ccccc4)C3)c2)cn1` [Example 424, (R)-2-amino-N-(1-cinnamoylpyrrolidin-3-yl)-5-(1-methyl-1H-pyrazol-4-yl)nicotinamide] registered an IC50 of over 1000 nM.
`Cn1cc(-c2cnc(N)c(C(=O)N[C@@H]3CCN(C(=O)/C=C/c4ccc5c(c4)OCO5)C3)c2)cn1` [Example 425, (R,E)-2-amino-N-(1-(3-(benzo[d][1,3]dioxol-5-yl)acryloyl)pyrrolidin-3-yl)-5-(1-methyl-1H-pyrazol-4-yl)nicotinamide] returned an IC50 of over 1000 nM.
Compound `C/C(=C\c1ccccc1)C(=O)N1CC[C@@H](NC(=O)c2cc(-c3cnn(C)c3)cnc2N)C1` [Example 426, (R,E)-2-amino-5-(1-methyl-1H-pyrazol-4-yl)-N-(1-(2-methyl-3-phenylacryloyl)pyrrolidin-3-yl)nicotinamide] gave an IC50 of over 1000 nM.
For `Cn1cc(-c2cnc(N)c(C(=O)N[C@@H]3CCN(C(=O)/C=C/c4ccc(Br)cc4)C3)c2)cn1` [Example 427, (R,E)-2-amino-N-(1-(3-(4-bromophenyl)acryloyl)pyrrolidin-3-yl)-5-(1-methyl-1H-pyrazol-4-yl)nicotinamide] the value was 100 to 1000 nM; for `Cn1cc(-c2cnc(N)c(C(=O)N[C@@H]3CCN(C(=O)/C=C/c4cccc(Br)c4)C3)c2)cn1` [Example 428, (R,E)-2-amino-N-(1-(3-(3-bromophenyl)acryloyl)pyrrolidin-3-yl)-5-(1-methyl-1H-pyrazol-4-yl)nicotinamide], over 1000 nM; for `CN1CCN(Cc2ccc(/C=C/C(=O)N3CC[C@@H](NC(=O)c4cc(-c5cnn(C)c5)cnc4N)C3)cc2)CC1` [Example 429, (R,E)-2-amino-5-(1-methyl-1H-pyrazol-4-yl)-N-(1-(3-(4-((4-methylpiperazin-1-yl)methyl)phenyl)acryloyl)pyrrolidin-3-yl)nicotinamide], 100 to 1000 nM.
In the case of `Cn1cc(-c2cnc(N)c(C(=O)N[C@@H]3CCN(C(=O)/C=C/c4ccc(CN5CCN(CCO)CC5)cc4)C3)c2)cn1` [Example 430, (R,E)-2-amino-N-(1-(3-(4-((4-(2-hydroxyethyl)piperazin-1-yl)methyl)phenyl)acryloyl)pyrrolidin-3-yl)-5-(1-methyl-1H-pyrazol-4-yl)nicotinamide], the IC50 is over 1000 nM.
In the case of `CN1CCN(Cc2ccc(-c3ccc(/C=C/C(=O)N4CC[C@@H](NC(=O)c5cc(-c6cnn(C)c6)cnc5N)C4)cc3)cc2)CC1` [Example 432, (R,E)-2-amino-5-(1-methyl-1H-pyrazol-4-yl)-N-(1-(3-(4′-((4-methylpiperazin-1-yl)methyl)-[1,1′-biphenyl]-4-yl)acryloyl)pyrrolidin-3-yl)nicotinamide] it was over 1000 nM; in that of `COc1ccccc1CC(=O)N1CC[C@@H](NC(=O)c2cc(-c3cnn(C)c3)cnc2N)C1` [Example 436, (R)-2-amino-N-(1-(2-(2-methoxyphenyl)acetyl)pyrrolidin-3-yl)-5-(1-methyl-1H-pyrazol-4-yl)nicotinamide], over 1000 nM; in that of `Cn1cc(-c2cnc(N)c(C(=O)N[C@@H]3CCN(C(=O)c4ccccc4)C3)c2)cn1` [Example 438, (R)-2-amino-N-(1-benzoylpyrrolidin-3-yl)-5-(1-methyl-1H-pyrazol-4-yl)nicotinamide], over 1000 nM.
In the case of `CN1CCN(Cc2ccc(-c3cccc4c(C(=O)N5CC[C@@H](NC(=O)c6cc(-c7cnn(C)c7)cnc6N)C5)cccc34)cc2)CC1` [Example 443, (R)-2-amino-5-(1-methyl-1H-pyrazol-4-yl)-N-(1-(5-(4-((4-methylpiperazin-1-yl)methyl)phenyl)-1-naphthoyl)pyrrolidin-3-yl)nicotinamide] it was over 1000 nM; in that of `Cn1cc(-c2cnc(N)c(C(=O)N[C@@H]3CCN(C(=O)c4cccc5c(-c6ccc(CN7CCC[C@@H]7CO)cc6)cccc45)C3)c2)cn1` [Example 444], over 1000 nM.
